Assay: solubility of 2-amino-5-methyl-1,3,4-oxadiazole in water and aqueous NaCl solution (salting-out effect)
Format: physicochemical

- solubility in a 10 mass % aqueous NaCl solution (10 mass % aqueous NaCl solution (30° C. as in the same sentence)): 7.9 % by mass
- solubility in a 26.4 mass % aqueous NaCl solution (30° C.): 3.5 % by mass
- solubility in a 26.4 mass % aqueous NaCl solution (−5° C.): 1.1 % by mass
- solubility in water (water, 30° C.): 13.9 % by mass
SMILES: Cc1nnc(N)o1 [2-amino-5-methyl-1,3,4-oxadiazole]
